The source of these data is US11066649B2, “Method for inducing human cholangiocyte differentiation” (INSERM (INSTITUT NATIONAL DE LA SANTÉ ET DE LA RECHERCHE …, priority 2014, dated 2021).

In experiment [1] the test system is hESC-Chol. The experiment can be described thus: Cellular Ca2+ imaging: intracellular Ca2+ increase after hormonal stimulation. Type of experiment: cell-based, human. To be noted: hESC-Chol at day 23, Fura2-AM loaded. Here is the method:
At day 17, differentiating hESC-Chols were plated on glass coverslips coated with type I collagen and differentiated further into cholangiocyte-like cells as described above. At day 23 hESC-Chols were loaded with 3 μM Fura2-AM (Invitrogen, F1201) in BDM medium (37° C. and 5% CO2), for 45 minutes. Cells were then washed twice, and transferred into a perfusion chamber placed on the stage of a Zeiss inverted microscope (Axiovert 35). Intracellular calcium increases were measured after stimulation with somatostatin (Eumedica), ATP (Sigma), or Acetylcholine (Sigma). Calcium imaging was performed as described previously.^41 Fluorescence images were collected by a charge-coupled device camera (Princeton), digitized and integrated in real time by an image processor (Metafluor, Princeton).
To assess the functionality of our hESC-Chol, they analyzed their response to Adenosine triphosphate (ATP), acetylcholine and Somatostatin, known to induce Ca^2+ increase in biliary cells via P2Y1 receptors,^5 M3 muscarinic receptor (AChR M3),^25 Somatostatin receptor type 2 (SSTR2)^26 respectively, as well as type III Inositol 1,4,5-triphosphate (InsP3) receptor (InsP3R), an intracellular Ca^2+ channel, which stimulates release of Ca^2+ from intracellular stores into the cytosol.^27

The next experiment relates to hepatic progenitors. The experiment in a line: Effect of periportal mesenchymal factors on commitment of hepatic progenitors toward cholangiocytes. The experiment is classed as cell-based, human. To be noted: addition to hepatic progenitors; data not shown.
For a further experiment, the system named is HepaRG-HB. The experiment in a line: Effect of GH on HepaRG-hepatoblasts. To be noted: addition of GH; data not shown. The experiment is classed as cell-based, human. The method, then: Independent culture experiments were performed 4 times.
The subject of experiment [2] is hESC-Chol. The experiment in a line: Expression of cholangiocyte markers in hESC-Chol after addition of NaBut. Conditions: addition of NaBut on hESC-Chol (1 μM, days 21 to 23). The experiment is classed as cell-based, human. The method, then:
(§1) At days 10-12 of differentiation, hESC/hiPSC-hepatoblasts were harvested with cell dissociation buffer (0.1 mg/ml EDTA, 0.5 mg/ml BSA in PBS) and seeded onto 12-well collagen I-coated plates (BD Biosciences) with plating medium (William's E/Ham F12 1:1, 10% FBS (PAA Laboratories), 1 mg/ml fraction V fatty acid-free BSA (Sigma), 1 mM L-glutamine) for 4 hours. Cells were then incubated overnight with biliary differentiation medium (BDM) (William's E/Ham F12 1:1, 10^−5 M linoleic acid-Albumin (Sigma L9530), 5.10^−8 M 3,3′,5-Triiodo-L-thyronine (Sigma T2752), 0.2 IU Insulin, 6.10^−4 M Vitamin C (Boyer), […] (Sigma T5391), 1 mM sodium pyruvate (Gibco)). […]
Total RNA was purified with an RNAeasy kit (Qiagen). cDNAs were obtained by using QuantiTect kit (Qiagen 204341) or the High Capacity cDNA Reverse Transcription Kit (Applied Biosystems, Carlsbad, Calif.) according to the manufacturer's instructions. The level of gene expression was measured and analyzed by real-time PCR over 40 cycles using Taqman universal master mix II and Taqman gene expression assays (Applied Biosystems) using an ABI-7000 real-time PCR system and ABI 7000 software. The expression level of CFTR TGR5 (GPBAR-1), SCTR, GGT1, SOX9, AQP1 and JAG was determined in relation to RPL13A, which served as a housekeeping gene. […]

The next experiment has as its system HepaRG-Chol. Conditions: VEGF-165 20 ng/ml for 2 days. Here is the method:
HepaRG-HB cultured in the reduced medium were treated for 2 days with IL-6 (10 ng/ml), then for 2 days with sodium taurocholate hydrate (10 nM) and then for 2 days with sodium taurocholate hydrate (10 nM) and sodium butyrate (1.8 μM) to prevent spontaneous differentiation along the hepatocytic lineage. Independent culture experiments were performed 4 times. For proliferation assay, VEGF-165 (20 ng/ml) (Promokine, C-64420) was added on HepaRG-Chol culture for 2 days. Immunostaining pictures were analyzed and quantification was assessed with Cell Health Profiling BioApplication from Cellomics software.

The subject of experiment [3] is hESC-derived differentiating cells. The experiment in a line: Ki67 staining of differentiating cells after addition of IL-6. To be noted: after addition of IL-6 (10 ng/ml). The experiment is classed as cell-based, human. Here is the method: as §1
Cells were fixed with 4% Paraformaldehyde for 15 minutes at room temperature and permeabilized with 0.5% Triton X-100 for 15 minutes, 3% BSA-PBS for 30 minutes at room temperature or with 0.2% saponin and 5% donkey serum for 45 minutes at room temperature. […] All the photographs were taken with a Leica HMR microscope (Leica Microsystems), inverted DMIRBE microscope (Leica) using a 20×/0.4 N Plan objective (leica) and a CoolSnapES N&B camera (Photometrics) driven by MetaVue software (Molecular devices), SP5 LEICA DMI 6000 CS Microscope (Leica, Germany) and treated with LAS AF 2.6.0 software, or ACT-1 Nikon software or Cellomics ArrayScan VTI HCS Reader.

On to `CC(=O)OCC[N+](C)(C)C` [acetylcholine], for which the “percentage of responsive cells (Ca2+ increase)” value with hESC-Chol [1] is 40%±4.
In the case of “TGFβ1: Transforming growth factor beta 1”, the “cell commitment toward cholangiocytes” value in the experiment with hepatic progenitors is “did not induce significant cell commitment”.
Turning to `Nc1ncnc2c1ncn2[C@@H]1O[C@H](COP(=O)(O)OP(=O)(O)OP(=O)(O)O)[C@@H](O)[C@H]1O` [ATP, Adenosine triphosphate], the “percentage of responsive cells (Ca2+ increase)” value in the experiment on hESC-Chol [1] is recorded as 70%±5.
As for “GH: peptide hormone that stimulates growth and metabolism; Uniprot P01241”, the “proliferation and differentiation of HepaRG-hepatoblasts” value in the experiment on HepaRG-HB is “did not improve”.
With `CCCC(=O)[O-].[Na+]` [NaBut, Sodium Butyrate], the “expression of cholangiocyte markers” value in the experiment with hESC-Chol [2] is reported as “did not significantly change”.
VEGF: the “cell commitment toward cholangiocytes” value in the experiment with hepatic progenitors is listed as “did not induce significant cell commitment”. Besides, the “increase in the number of cells in G2/M phases” value in the experiment with HepaRG-Chol was “two-fold increase”.
For “IL-6: polypeptide also known as B cell-stimulating factor 2; Uniprot P05231”, in experiment [3], the Ki67-positive cycling cells result is “up to 68%”.

B1: BMP4: Bone morphogenetic protein 4; Uniprot P12644 (protein, UniProt P12644 293-408, looked up)
Bone morphogenetic protein 4: SPKHHSQRARKKNKNCRRHSLYVDFSDVGWNDWIVAPPGYQAFYCHGDCPFPLADHLNSTNHAIVQTLVNSVNSSIPKACCVPTELSAISMLYLDEYDKVVLKNYQEMVVEGCGCR
On to B1, for which, in the experiment with hepatic progenitors, the “cell commitment toward cholangiocytes” value is on record as “did not induce significant cell commitment”.
